A short description of data set [1]: in vivo. The conditions noted are these: BALB/c, mouse, iv, 1 mg/kg.
The nature of data set [2]: in vivo. The conditions noted are these: BALB/c, mouse, po, 10 mg/kg.
A short description of data set [3]: in vivo. The conditions noted are these: BALB/c, mouse, iv, 1 mg/kg. The source holds these as a separate data set.
Data set [4] is described as follows: in vivo. Particulars: BALB/c, mouse, iv, 1 mg/kg. This is another data set of the same source.
Data set [5] in a line: in vivo. Particulars: BALB/c, mouse, po, 10 mg/kg. The source holds these as a separate data set.
A short description of data set [6]: in vivo. The conditions noted are these: BALB/c, mouse, po, 10 mg/kg. The source holds these as a separate data set.

These results are taken from ChEMBL document CHEMBL4765311, “Synthesis and biological evaluation of 4-(pyridin-4-oxy)-3-(3,3-difluorocyclobutyl)-pyrazole derivatives as novel potent transforming growth factor-β type 1 receptor inhibitors” (Eur J Med Chem, 2020).

Regarding `CC(C)(O)c1cc(Nc2cc(Oc3cn(C4CC4)nc3C3CCOCC3)ccn2)ccn1` [LY-3200882], the half-life (usually how long it takes for the measured level to halve) at 24 h is 24 min in the data set “in vivo [1]” and 66 min in the data set “in vivo [6]”. For the same molecule, the bioavailability – broadly, dose-corrected exposure relative to a reference, in per cent – at 24 h in the data set “in vivo [2]” is 45.6%. The volume of distribution (Vd) – broadly, a proportionality between amount in the body and measured concentration, not a real space – at 24 h in “in vivo [3]” was determined as 2.3 L/kg. In addition, in “in vivo [4]”, the clearance (usually the volume of plasma or blood freed of the substance per unit of time) at 24 h is 86.7 mL/min/kg. In addition, in “in vivo [5]”, the Cmax (in general, the peak of the concentration-time curve) at 24 h was 747 ng/mL.
